# Data taken from paper PMC6993756, “Novel Anticancer Fused Pyrazole Derivatives as EGFR and VEGFR-2 Dual TK Inhibitors” (Frontiers in Chemistry, 2020).
# Like-named read-outs stand apart in the source and are kept apart here.
# Key:
# VEGFR-2 = VEGFR-2 (Homo sapiens, UniProt P35968); assay: VEGFR-2 kinase inhibitory assay (HTScan VEGF Receptor 2 kinase assay kit)
# [1] = tested on: HEPG2 human cancer cell line; assay: MTT in vitro anticancer activity against HEPG2 cell line; format: cell-based; settings: for IC50: Homo sapiens, read-out: IC50 HEPG2; for fold higher activity than erlotinib, HEPG2: versus erlotinib (10.6 μM)
# Experimental: The MTT method of monitoring in vitro cytotoxicity was used with multiwell plates. The stock concentration of the entire synthesized compounds in DMSO was 10 mM, and this was used to prepare the working dilution. The final DMSO concentration used in the experiments was ≤ 0.5% as the working concentration. Human liver cancer cell lines (HepG2) were cultured according to the manufacturer's instructions. […] The cell viability was determined in each experiment using MTT (3-(4, 5-dimethylthiazol-2-yl)-2, 5-diphenyltetrazolium bromide) colorimetric assay. The optical density was measured with a microplate reader at 540 nm. The experiment was conducted in triplicate. Data were calculated as percent of cell viability.
# EGFR = EGFR (Homo sapiens, UniProt P00533); assay: EGFR kinase inhibitory assay (BPS Bioscience EGFR kinase assay kit)
# Chain of EGFR (P00533 25-1210): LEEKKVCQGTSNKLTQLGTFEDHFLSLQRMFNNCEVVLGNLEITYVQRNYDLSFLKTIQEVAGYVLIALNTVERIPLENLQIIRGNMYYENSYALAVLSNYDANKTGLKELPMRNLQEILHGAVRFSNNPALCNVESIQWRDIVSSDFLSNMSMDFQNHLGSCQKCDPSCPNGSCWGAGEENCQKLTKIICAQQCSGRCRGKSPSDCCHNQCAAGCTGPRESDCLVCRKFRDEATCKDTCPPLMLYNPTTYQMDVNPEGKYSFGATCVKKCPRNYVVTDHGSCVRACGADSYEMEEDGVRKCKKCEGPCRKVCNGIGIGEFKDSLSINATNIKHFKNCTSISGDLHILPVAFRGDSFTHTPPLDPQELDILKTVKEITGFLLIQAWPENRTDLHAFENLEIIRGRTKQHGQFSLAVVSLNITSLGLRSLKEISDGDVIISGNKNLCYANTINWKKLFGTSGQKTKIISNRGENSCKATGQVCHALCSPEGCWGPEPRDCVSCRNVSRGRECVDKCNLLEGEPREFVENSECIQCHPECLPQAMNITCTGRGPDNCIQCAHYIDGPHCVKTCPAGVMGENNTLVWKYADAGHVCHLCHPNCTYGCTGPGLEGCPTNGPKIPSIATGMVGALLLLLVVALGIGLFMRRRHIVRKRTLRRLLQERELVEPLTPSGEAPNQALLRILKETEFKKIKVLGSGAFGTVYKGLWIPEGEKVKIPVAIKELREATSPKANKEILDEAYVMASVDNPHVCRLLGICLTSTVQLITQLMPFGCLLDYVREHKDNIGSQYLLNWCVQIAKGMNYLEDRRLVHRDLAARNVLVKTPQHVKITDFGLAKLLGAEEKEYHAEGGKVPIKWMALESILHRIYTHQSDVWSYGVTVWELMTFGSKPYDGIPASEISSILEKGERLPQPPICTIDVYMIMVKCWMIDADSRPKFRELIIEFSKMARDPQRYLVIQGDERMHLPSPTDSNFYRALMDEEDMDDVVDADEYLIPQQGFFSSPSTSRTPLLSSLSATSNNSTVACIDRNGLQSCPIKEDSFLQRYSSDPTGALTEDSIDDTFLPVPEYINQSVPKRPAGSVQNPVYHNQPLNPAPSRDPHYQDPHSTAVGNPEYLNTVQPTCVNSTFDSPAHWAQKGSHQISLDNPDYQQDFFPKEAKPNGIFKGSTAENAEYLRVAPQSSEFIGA
# [2] = HepG2, MTT, 24 h treatment, mean of three experiments
# Chain of VEGFR-2 (P35968 20-1356): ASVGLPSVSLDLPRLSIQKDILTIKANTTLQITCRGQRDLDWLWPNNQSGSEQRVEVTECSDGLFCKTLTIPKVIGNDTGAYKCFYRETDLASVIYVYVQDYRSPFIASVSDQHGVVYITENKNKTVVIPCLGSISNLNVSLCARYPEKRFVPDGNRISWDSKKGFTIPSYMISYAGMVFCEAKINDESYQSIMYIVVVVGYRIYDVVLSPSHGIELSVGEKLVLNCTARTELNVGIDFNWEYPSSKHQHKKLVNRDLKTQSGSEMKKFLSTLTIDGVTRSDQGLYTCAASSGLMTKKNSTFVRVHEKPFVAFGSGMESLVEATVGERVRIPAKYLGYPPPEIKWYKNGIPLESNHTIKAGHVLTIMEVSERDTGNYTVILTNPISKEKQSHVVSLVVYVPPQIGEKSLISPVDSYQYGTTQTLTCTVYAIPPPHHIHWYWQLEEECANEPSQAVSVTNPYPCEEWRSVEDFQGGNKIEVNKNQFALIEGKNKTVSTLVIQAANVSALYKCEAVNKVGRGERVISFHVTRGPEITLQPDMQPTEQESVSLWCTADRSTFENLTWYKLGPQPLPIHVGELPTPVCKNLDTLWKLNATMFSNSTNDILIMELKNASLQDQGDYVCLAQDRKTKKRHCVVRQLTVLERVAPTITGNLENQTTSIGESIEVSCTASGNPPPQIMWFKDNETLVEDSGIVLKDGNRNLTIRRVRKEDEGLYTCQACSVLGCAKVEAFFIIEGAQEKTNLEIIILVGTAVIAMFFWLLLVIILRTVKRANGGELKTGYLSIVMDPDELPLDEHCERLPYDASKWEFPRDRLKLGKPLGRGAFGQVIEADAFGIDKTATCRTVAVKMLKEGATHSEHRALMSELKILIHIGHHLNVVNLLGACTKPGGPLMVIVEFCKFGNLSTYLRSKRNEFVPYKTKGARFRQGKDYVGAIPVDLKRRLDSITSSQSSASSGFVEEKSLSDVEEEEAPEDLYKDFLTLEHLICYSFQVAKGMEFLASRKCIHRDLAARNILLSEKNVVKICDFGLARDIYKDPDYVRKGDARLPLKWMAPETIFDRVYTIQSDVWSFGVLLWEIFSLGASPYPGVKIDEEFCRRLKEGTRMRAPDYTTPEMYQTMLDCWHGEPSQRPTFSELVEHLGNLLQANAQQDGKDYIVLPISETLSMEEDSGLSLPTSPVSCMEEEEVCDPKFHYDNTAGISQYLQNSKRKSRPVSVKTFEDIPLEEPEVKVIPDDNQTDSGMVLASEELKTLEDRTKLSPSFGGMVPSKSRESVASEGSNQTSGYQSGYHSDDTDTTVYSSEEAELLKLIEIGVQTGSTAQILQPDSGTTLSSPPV
IC50 (VEGFR-2) [nM],"IC50 [1, 2] [nM]",IC50 (EGFR) [nM],melting point [°C],SMILES,"fold higher activity than erlotinib, HEPG2 [1] [fold]","IC50 ([1]; HepG2, 24 h) [nM]"
11400,420,140,,"Cc1n[nH]c2c1C(c1ccccc1Br)C(C#N)=C(N)O2 (centres unmarked) [Compound 1, 6-amino-4-(2-bromophenyl)-3-methyl-1,4-dihydropyrano[2,3-c]pyrazole-5-carbonitrile]",~10,
2120,350,490,158 to 160,"CCOC=NC1=C(C#N)C(c2ccccc2Br)c2c(C)n[nH]c2O1 (centres unmarked) [Compound 2, Ethyl(E)-N-(4-(2-bromophenyl)-5-cyano-3-methyl-1,4-dihydropyrano[2,3-cpyrazol-6-yl)formimidate]",~10,
850,4070,60,120 to 122,"Cc1n[nH]c2c1C(c1ccccc1Br)c1c(ncn(N)c1=N)O2 (centres unmarked) [Compound 3, 4-(2-Bromophenyl)-5-imino-3-methyl-1,4-dihydropyrazolo[4′,3′:5,6]pyrano[2,3-d]pyrimidin-6(5H)-amine]",,
360,310,130,115,"Cc1nc2c(c(=O)[nH]1)C(c1ccccc1Br)c1c(C)n[nH]c1O2 (centres unmarked) [Compound 4, 4-(2-Bromophenyl)-3,7-dimethyl-4,6-dihydropyrazolo[4′,3′:5,6]pyrano[2,3-d]pyrimidin-5(1H)-one]",~10,
1120,8710,150,205,"Cc1n[nH]c2c1C(c1ccccc1Br)c1c(nc[nH]c1=O)O2 (centres unmarked) [Compound 5, 4-(2-Bromophenyl)-3-methyl-4,6-dihydropyrazolo [4′,3′:5,6]pyrano[2,3-d]pyrimidin-5(1H)-one]",,
1100,15700,250,320,"Cc1n[nH]c2c1C(c1ccccc1Br)c1c(N)ncnc1O2 (centres unmarked) [Compound 6, 4-(2-Bromophenyl)-3-methyl-1,4-dihydropyrazolo[4′,3′:5,6]pyrano[2,3-d]pyrimidin-5-amine]",,
1450,1840,250,> 360,"Cc1n[nH]c2c1C(c1ccccc1Br)C(C#N)=C(NC(=O)CC#N)O2 (centres unmarked) [Compound 7, N-(4-(2-Bromophenyl)-5-cyano-3-methyl-1,4-dihydropyrano[2,3-c]pyrazol-6-yl)-2-cyanoacetamide]",,
460,380,230,,"Cc1n[nH]c2c1C(c1ccccc1Br)C(C#N)=C(NC(=S)Nc1ccccc1)O2 (centres unmarked) [Compound 8, 1-(4-(2-Bromophenyl)-5-cyano-3-methyl-1,4-dihydropyrano[2,3-c]pyrazol-6-yl)-3-phenylthiourea]",,
220,2300,160,193 to 195,"Cc1ccc(S(=O)(=O)NC2=C(C#N)C(c3ccccc3Br)c3c(C)n[nH]c3O2)cc1 (centres unmarked) [Compound 9, N-(4-(2-Bromophenyl)-5-cyano-3-methyl-1,4-dihydropyrano[2,3-c]pyrazol-6-yl)-4-methyl-benzenesulfonamide]",,
270,630,300,210,"CC1=NNC(=O)/C1=C/c1ccccc1Br [Compound 11, (E)-4-(2-Bromobenzylidene)-5-methyl-2,4-dihydro-3H-pyrazol-3-one]",~10,
230,710,90,205,"CC1=NNC2=NC(=O)NC(c3ccccc3Br)C12 (centres unmarked) [Compound 12, 4-(2-bromophenyl)-3-methyl-1,3a, 4,5-tetrahydro-6h-pyrazolo [3,4-d]pyrimidin-6-one]",~10,
750,1810,120,170,"CC1=NNC2=NC(=S)NC(c3ccccc3Br)C12 (centres unmarked) [Compound 13, 4-(2-Bromophenyl)-3-methyl-1,3a,4,5-tetrahydro-6H-pyrazolo[3,4-d]pyrimidine-6-thione]",,
2870,6640,110,140,"CC1=NNC2=NNC(c3ccccc3Br)C12 (centres unmarked) [Compound 14, 4-(2-Bromophenyl)-3-methyl-1,3a,4,5-tetrahydropyrazolo[3,4-c]pyrazole]",,
370,370,190,> 360,"Cc1n[nH]c2oc(=O)c(C#N)c(-c3ccccc3Br)c12 [Compound 15, 4-(2-Bromophenyl)-3-methyl-6-oxo-1,6-dihydropyrano[2,3-c]pyrazole-5-carbonitrile]",~10,
,,,,"C#Cc1cccc(Nc2ncnc3cc(OCCOC)c(OCCOC)cc23)c1 [Erlotinib, erlotinib, reference compound]",,10600
,1060,,,"CNC(=O)c1cc(Oc2ccc(NC(=O)Nc3ccc(Cl)c(C(F)(F)F)c3)cc2)ccn1 [Sorafenib, sorafenib, reference compound]",,
